According to ChEMBL document CHEMBL2321758, “Discovery of 4-{4-[(3R)-3-Methylmorpholin-4-yl]-6-[1-(methylsulfonyl)cyclopropyl]pyrimidin-2-yl}-1H-indole (AZ20): a potent and selective inhibitor of ATR protein kinase with monotherapy in vivo antitumor activity” (J Med Chem, 2013):
In brackets after ≈: the same amount, converted by molar mass. Activity calls are given as the source filed them. No cut-off for these calls is given here.

Legend:
in vitro = settings: rat, hepatocytes
physchem = settings: octanol/buffer, pH 7.4
[1] = Solubility of the compound in phosphate buffer after 24 hrs at pH 7.4 by LC-UV-MS analysis; format: physicochemical
[2] = biological target: T1, Serine/threonine-protein kinase ATR (Homo sapiens, UniProt Q13535)
[3] = Fraction unbound in rat plasma; format: ADME, cell-free
[4] = biological target: Voltage-gated inwardly rectifying potassium channel KCNH2 (Homo sapiens, UniProt Q12809)
[5] = Apparent permeability from apical to basolateral side in human Caco2 cells at 10 uM at pH 6.5; format: ADME, cell-based; settings: Caco-2, pH 6.5
[6] = biological target: T2, Phosphatidylinositol 4,5-bisphosphate 3-kinase catalytic subunit alpha isoform (Homo sapiens, UniProt P42336); assay: Inhibition of PI3Kalpha (unknown origin)
[7] = biological target: T3, Serine/threonine-protein kinase mTOR (Homo sapiens, UniProt P42345); assay: Inhibition of mTOR-mediated AKT phosphorylation at serine 473 in human MDA-MB-468 cells; format: cell-based
[8] = biological target: T1, Serine/threonine-protein kinase ATR; format: cell-based, HT-29
[9] = Dissociation constant, pKa of the compound; format: physicochemical
[10] = AUC in Han-Wistar rat at 4 umol/kg, po; format: ADME, organism-based; settings: plasma
[11] = Aqueous solubility of the compound at pH 7.4; format: physicochemical; settings: buffer
[12] = biological target: T3, Serine/threonine-protein kinase mTOR; assay: Inhibition of recombinant mTOR (unknown origin)
[13] = biological target: T2, Phosphatidylinositol 4,5-bisphosphate 3-kinase catalytic subunit alpha isoform; assay: Inhibition of PI3Kalpha (unknown origin) assessed as residual activity at 1 uM
LoVo [14] = assay: Antitumor activity against human LoVo cells xenografted in Swiss nu/nu mouse assessed as tumor growth inhibition at 50 mg/kg, po qd for 13 days relative to control; format: functional, organism-based; parameters: dose 50 mg/kg
LoVo [15] = assay: Antitumor activity against human LoVo cells xenografted in Swiss nu/nu mouse assessed as tumor growth inhibition at 25 mg/kg, po bid for 13 days relative to control; format: functional, organism-based; parameters: dose 25 mg/kg
[16] = biological target: T3, Serine/threonine-protein kinase mTOR; assay: Inhibition of recombinant mTOR (unknown origin) assessed as residual activity at 1 uM
[17] = Oral bioavailability in Han-Wistar rat at 4 umol/kg; format: ADME, organism-based; settings: in vivo
[18] = Bioavailability in rat; format: ADME, organism-based; settings: in vivo
[19] = Volume of distribution in rat; format: ADME, organism-based; settings: in vivo
[20] = Plasma clearance in rat; format: ADME, organism-based
[21] = biological target: DNA-dependent protein kinase catalytic subunit (Homo sapiens, UniProt P78527); assay: Inhibition of DNA-PK (unknown origin)

T2 sequence (P42336 whole entry, canonical isoform): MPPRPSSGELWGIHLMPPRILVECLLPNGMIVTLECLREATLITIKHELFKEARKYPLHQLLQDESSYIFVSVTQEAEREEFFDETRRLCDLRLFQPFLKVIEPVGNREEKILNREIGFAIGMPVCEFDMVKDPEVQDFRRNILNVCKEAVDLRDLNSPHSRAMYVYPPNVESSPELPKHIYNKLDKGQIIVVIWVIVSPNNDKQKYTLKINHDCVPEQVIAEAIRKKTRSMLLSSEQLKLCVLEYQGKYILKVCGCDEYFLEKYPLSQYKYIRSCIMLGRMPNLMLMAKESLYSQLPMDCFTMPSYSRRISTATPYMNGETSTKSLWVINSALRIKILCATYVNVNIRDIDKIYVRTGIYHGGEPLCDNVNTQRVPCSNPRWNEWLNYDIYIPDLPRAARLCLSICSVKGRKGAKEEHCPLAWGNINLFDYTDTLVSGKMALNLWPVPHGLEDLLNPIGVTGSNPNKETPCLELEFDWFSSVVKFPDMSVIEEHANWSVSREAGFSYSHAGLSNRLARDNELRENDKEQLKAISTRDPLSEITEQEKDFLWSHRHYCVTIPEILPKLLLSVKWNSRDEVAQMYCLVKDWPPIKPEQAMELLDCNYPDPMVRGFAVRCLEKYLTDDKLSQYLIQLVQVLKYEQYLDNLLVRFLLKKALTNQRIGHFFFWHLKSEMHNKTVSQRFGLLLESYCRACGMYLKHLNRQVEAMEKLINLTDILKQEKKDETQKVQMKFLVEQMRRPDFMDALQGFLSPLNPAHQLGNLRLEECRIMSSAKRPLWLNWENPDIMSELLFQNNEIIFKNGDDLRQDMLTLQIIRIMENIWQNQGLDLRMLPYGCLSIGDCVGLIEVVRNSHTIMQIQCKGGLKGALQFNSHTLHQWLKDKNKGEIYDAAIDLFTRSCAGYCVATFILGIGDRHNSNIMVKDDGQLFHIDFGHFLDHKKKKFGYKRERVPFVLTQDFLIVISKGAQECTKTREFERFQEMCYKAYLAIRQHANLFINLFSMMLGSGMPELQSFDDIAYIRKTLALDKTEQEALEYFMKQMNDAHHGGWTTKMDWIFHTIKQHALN
T1 sequence (Q13535 whole entry): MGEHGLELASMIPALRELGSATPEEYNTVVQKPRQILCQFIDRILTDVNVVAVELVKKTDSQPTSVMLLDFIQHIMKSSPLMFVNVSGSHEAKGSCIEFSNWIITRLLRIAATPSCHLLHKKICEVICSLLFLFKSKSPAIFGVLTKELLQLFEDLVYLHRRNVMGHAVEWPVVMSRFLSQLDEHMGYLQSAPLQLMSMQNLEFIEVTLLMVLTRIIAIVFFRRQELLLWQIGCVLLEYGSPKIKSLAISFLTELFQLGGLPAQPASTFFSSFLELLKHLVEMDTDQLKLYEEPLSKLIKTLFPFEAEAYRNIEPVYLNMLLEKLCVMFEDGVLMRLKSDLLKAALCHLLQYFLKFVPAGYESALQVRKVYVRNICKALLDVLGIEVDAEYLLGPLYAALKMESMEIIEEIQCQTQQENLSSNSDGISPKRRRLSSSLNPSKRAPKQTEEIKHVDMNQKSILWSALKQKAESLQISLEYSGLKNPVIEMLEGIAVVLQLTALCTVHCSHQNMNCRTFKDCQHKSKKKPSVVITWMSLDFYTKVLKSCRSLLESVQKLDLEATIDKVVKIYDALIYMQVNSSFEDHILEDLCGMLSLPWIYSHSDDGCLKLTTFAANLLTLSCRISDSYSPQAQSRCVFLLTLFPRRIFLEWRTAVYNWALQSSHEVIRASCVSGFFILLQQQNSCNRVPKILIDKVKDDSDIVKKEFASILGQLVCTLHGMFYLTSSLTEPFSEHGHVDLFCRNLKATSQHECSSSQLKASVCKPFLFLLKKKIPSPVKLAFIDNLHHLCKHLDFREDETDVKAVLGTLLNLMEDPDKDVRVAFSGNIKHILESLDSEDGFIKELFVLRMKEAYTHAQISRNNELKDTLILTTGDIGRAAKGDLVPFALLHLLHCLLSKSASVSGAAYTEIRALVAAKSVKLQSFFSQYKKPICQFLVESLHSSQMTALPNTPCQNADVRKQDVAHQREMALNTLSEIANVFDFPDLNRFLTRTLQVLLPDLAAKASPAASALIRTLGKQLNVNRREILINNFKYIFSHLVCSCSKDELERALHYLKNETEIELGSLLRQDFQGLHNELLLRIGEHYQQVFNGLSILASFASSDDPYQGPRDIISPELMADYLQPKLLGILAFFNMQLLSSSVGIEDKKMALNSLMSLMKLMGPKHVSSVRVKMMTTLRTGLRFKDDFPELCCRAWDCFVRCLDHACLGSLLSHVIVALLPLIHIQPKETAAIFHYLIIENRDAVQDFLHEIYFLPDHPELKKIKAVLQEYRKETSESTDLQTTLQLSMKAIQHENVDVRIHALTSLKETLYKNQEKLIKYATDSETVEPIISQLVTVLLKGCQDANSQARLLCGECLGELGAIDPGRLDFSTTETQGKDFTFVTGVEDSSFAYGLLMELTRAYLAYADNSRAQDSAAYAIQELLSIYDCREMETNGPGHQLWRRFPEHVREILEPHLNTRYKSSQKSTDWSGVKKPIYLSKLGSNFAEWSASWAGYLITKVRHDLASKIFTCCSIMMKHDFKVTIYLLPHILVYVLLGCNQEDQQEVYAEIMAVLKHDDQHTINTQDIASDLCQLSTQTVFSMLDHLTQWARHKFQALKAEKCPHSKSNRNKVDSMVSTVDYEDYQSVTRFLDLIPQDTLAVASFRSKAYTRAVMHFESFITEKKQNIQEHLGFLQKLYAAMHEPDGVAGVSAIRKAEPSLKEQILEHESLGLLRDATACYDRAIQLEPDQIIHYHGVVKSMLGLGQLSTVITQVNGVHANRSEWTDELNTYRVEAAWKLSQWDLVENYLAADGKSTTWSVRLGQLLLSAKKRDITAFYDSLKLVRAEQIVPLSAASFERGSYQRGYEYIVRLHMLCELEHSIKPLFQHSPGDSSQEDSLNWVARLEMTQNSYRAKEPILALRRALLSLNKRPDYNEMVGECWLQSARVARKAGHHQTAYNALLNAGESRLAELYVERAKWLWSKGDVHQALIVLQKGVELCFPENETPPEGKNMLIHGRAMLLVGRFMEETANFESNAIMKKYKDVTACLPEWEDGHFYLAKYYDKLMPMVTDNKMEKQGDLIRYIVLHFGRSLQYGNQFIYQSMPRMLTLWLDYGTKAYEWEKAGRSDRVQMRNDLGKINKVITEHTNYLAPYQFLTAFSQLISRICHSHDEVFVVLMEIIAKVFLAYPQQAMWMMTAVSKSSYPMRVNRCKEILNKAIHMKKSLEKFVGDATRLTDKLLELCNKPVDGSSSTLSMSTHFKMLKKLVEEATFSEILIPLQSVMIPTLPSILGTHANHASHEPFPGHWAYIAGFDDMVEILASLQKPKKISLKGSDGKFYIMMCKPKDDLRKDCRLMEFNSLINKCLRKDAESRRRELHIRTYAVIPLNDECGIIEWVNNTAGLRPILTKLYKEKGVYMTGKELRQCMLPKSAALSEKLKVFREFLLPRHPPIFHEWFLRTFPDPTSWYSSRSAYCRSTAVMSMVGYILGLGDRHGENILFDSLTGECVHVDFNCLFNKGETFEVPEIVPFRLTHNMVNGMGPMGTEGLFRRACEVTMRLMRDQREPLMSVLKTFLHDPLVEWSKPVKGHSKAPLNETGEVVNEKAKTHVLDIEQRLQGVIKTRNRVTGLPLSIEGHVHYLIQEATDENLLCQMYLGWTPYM
Voltage-gated inwardly rectifying potassium channel KCNH2, sequence (Q12809 whole entry): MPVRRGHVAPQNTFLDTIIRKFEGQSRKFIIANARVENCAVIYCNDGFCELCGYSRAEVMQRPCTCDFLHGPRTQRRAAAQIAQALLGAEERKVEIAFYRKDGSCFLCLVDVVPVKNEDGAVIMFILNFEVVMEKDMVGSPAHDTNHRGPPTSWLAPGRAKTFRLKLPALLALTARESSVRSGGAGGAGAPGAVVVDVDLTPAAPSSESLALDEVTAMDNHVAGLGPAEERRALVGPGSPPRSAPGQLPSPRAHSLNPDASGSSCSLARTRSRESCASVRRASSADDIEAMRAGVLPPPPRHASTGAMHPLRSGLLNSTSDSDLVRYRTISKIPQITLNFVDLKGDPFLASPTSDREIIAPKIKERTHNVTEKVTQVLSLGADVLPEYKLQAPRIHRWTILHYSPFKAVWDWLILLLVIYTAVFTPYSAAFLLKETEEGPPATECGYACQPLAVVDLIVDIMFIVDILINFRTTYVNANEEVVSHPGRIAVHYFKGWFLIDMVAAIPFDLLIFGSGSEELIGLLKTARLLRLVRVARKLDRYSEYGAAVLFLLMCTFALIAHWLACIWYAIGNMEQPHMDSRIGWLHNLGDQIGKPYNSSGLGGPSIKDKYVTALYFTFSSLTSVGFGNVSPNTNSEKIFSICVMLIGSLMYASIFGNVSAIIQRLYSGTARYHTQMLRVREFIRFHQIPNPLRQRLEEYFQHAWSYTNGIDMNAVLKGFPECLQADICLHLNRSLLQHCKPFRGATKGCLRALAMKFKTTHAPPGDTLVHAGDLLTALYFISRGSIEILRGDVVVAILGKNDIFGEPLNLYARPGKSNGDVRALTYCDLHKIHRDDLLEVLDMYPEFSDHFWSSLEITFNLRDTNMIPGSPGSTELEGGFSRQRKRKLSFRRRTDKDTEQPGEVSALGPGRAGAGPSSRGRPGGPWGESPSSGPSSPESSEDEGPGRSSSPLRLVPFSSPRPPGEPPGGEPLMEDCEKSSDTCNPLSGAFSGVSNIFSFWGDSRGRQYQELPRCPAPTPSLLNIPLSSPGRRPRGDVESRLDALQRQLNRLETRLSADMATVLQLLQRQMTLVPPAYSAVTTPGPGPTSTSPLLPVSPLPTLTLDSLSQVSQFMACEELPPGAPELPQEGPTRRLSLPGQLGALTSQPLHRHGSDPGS

| SMILES | IC50 [2] [µM] | IC50 [8] [µM] | also measured |
| --- | --- | --- | --- |
| CS(=O)(=O)C1(c2cc(N3CCOCC3)nc(-c3cccc4[nH]ccc34)n2)CCNCC1 | 0.009 | 0.42 | hepatocyte CLint at 1 µM (in vitro): 9.4 µL/min/1e6 cells; logD (physchem): 0.7; solubility at 24 h [1]: 230 µM (≈ 102 µg/mL); fraction unbound [3]: 0.4; IC50 [4]: > 33 µM; Papp A→B at 10 µM [5]: 0.2 ×10⁻⁶ cm/s; IC50 [6]: 2.7 µM; IC50 [7]: 1.5 µM; pKa [9]: 8.8; AUC [10]: 0.04 µM·h |
| Cc1ccc2[nH]ccc2c1-c1nc(N2CCOCC2)cc(C2(S(C)(=O)=O)CC2)n1 | – | > 30 | solubility [11]: 96 µM (≈ 39.6 µg/mL) |
| O=S(=O)(C1CCNCC1)C1(c2cc(N3CCOCC3)nc(-c3cccc4[nH]ccc34)n2)CC1 | 0.046 | 2.9 | – |
| CC[C@@H]1COCCN1c1cc(C2(S(C)(=O)=O)CC2)nc(-c2cccc3[nH]ccc23)n1 | 0.17 | 4.4 | logD (physchem): 3 |
| CS(=O)(=O)C1(c2cc(N3CCOCC3)nc(-c3cc(C(N)=O)cc4[nH]ccc34)n2)CC1 | 0.041 | 9.2 | – |
| CS(=O)(=O)C1(c2cc(N3CCOCC3)nc(-c3cccc4[nH]c(C(N)=O)cc34)n2)CC1 | 1.1 | > 30 | – |
| CN1CCC(c2cc(N3CCOCC3)nc(-c3cccc4[nH]ccc34)n2)(S(C)(=O)=O)CC1 | 0.061 | 3.7 | logD (physchem): 1.9 |
| Cc1ccc(-c2nc(N3CCOCC3)cc(C3(S(C)(=O)=O)CC3)n2)c2cc[nH]c12 | 0.22 | 6.3 | – |
| CN(C)C(=O)c1cc(-c2nc(N3CCOCC3)cc(C3(S(C)(=O)=O)CC3)n2)c2cc[nH]c2c1 | 0.72 | 24 | – |
| C[C@H]1COCCN1c1cc(C2(S(C)(=O)=O)CC2)nc(-c2cccc3[nH]ccc23)n1 | – | – | logD (physchem): 2.8 |
| C[C@@H]1COCCN1c1cc(C2(S(C)(=O)=O)CC2)nc(-c2cccc3[nH]ccc23)n1 | – | – | logD (physchem): 2.7; Activity [13]: < 50%; TGI (LoVo [14]): Active; TGI (LoVo [15]): Active; Activity [16]: < 50%; Papp A→B at 10 µM [5]: 23 ×10⁻⁶ cm/s; bioavailability [17]: 62% |
| CS(=O)(=O)C1(c2cc(N3CCOCC3)nc(-c3cccc(N)c3)n2)CC1 | 1.2 | > 30 | – |
| CS(=O)(=O)C1(c2cc(N3CCOCC3)nc(-c3cccc4[nH]ccc34)n2)CCOCC1 | 0.004 | 0.18 | hepatocyte CLint at 1 µM (in vitro): 23 µL/min/1e6 cells; logD (physchem): 2.4; solubility at 24 h [1]: 1.8 µM (≈ 0.797 µg/mL); fraction unbound [3]: 0.25; IC50 [4]: > 33 µM; Papp A→B at 10 µM [5]: 28 ×10⁻⁶ cm/s; IC50 [6]: 1.4 µM; IC50 [7]: 3.3 µM; AUC [10]: 0.32 µM·h |
| CS(=O)(=O)C1(c2cc(N3CCOCC3)nc(-c3cccc4[nH]ccc34)n2)CC1 | – | – | hepatocyte CLint at 1 µM (in vitro): < 3 µL/min/1e6 cells; logD (physchem): 2.2; bioavailability [18]: 70%; Vd [19]: 2.1 L/kg; solubility at 24 h [1]: 4.4 µM (≈ 1.75 µg/mL); fraction unbound [3]: 0.23; Papp A→B at 10 µM [5]: 21 ×10⁻⁶ cm/s; IC50 [6]: 0.94 µM; IC50 [7]: 3.2 µM; clearance [20]: 15 mL/min/kg; AUC [10]: 3.1 µM·h |
| CS(=O)(=O)Cc1cc(N2CCOCC2)nc(-c2ccc3cc[nH]c3c2)n1 | 1.5 | > 30 | – |
| CS(=O)(=O)C1(c2cc(N3CCOCC3)nc(-c3cccc4[nH]ncc34)n2)CC1 | 0.13 | 13 | – |
| CS(=O)(=O)C1(c2cc(N3CCOCC3)nc(-c3cc(Cl)cc4[nH]ccc34)n2)CC1 | 0.016 | 0.72 | – |
| CS(=O)(=O)C1(c2cc(N3CCOCC3)nc(-c3cccc4[nH]c(C#N)cc34)n2)CC1 | 0.3 | 7.2 | – |

The next lines start with results.

| IC50 [2] [µM] | IC50 [8] [µM] | SMILES | also measured |
| --- | --- | --- | --- |
| 3.3 | > 30 | Cn1ccc2c(-c3nc(CS(C)(=O)=O)cc(N4CCOCC4)n3)cccc21 | – |
| 0.013 | 0.77 | CC(C)S(=O)(=O)C1(c2cc(N3CCOCC3)nc(-c3cccc4[nH]ccc34)n2)CC1 | – |
| 14 | > 30 | Cc1c[nH]c2cccc(-c3nc(N4CCOCC4)cc(C4(S(C)(=O)=O)CC4)n3)c12 | – |
| 0.008 | 0.49 | Cc1cc(-c2nc(N3CCOCC3)cc(C3(S(C)(=O)=O)CC3)n2)c2cc[nH]c2c1 | – |
| 0.36 | > 30 | CS(=O)(=O)C1(c2cc(N3CCOCC3)nc(-c3ccccc3)n2)CC1 | – |
| 0.033 | 2.8 | O=S(=O)(C1CCOCC1)C1(c2cc(N3CCOCC3)nc(-c3cccc4[nH]ccc34)n2)CC1 | – |
| – | 1.5 | CS(=O)(=O)C1(c2cc(N3CCOCC3)nc(-c3cc(C#N)cc4[nH]ccc34)n2)CC1 | – |
| 0.003 | 0.28 | CC(C)(c1cc(N2CCOCC2)nc(-c2cccc3[nH]ccc23)n1)S(C)(=O)=O | hepatocyte CLint at 1 µM (in vitro): 41 µL/min/1e6 cells; logD (physchem): 2.7; solubility at 24 h [1]: < 0.4 µM; IC50 [12]: 0.19 µM; fraction unbound [3]: 0.2; Papp A→B at 10 µM [5]: 16 ×10⁻⁶ cm/s; IC50 [6]: 1.6 µM; IC50 [7]: 2.7 µM; AUC [10]: 0.76 µM·h |
| 1.7 | > 30 | CS(=O)(=O)Cc1cc(N2CCOCC2)nc(-c2ccc3[nH]ccc3c2)n1 | – |
| 0.028 | 2.5 | Cc1cc2c(-c3nc(N4CCOCC4)cc(C4(S(C)(=O)=O)CC4)n3)cccc2[nH]1 | – |
| 0.005 | 0.59 | O=S(=O)(c1ccccc1)C1(c2cc(N3CCOCC3)nc(-c3cccc4[nH]ccc34)n2)CC1 | – |
| 0.18 | > 30 | CS(=O)(=O)Cc1cc(N2CCOCC2)nc(-c2cccc3cc[nH]c23)n1 | – |
| 0.12 | 16 | CS(=O)(=O)C1(c2cc(N3CCOCC3)nc(-c3cccc4c3CC(=O)N4)n2)CC1 | – |
| 0.03 | 1.1 | CS(=O)(=O)Cc1cc(N2CCOCC2)nc(-c2cccc3[nH]ccc23)n1 | logD (physchem): 1.7; IC50 [12]: 0.33 µM; IC50 [21]: 2.7 µM; IC50 [6]: 3.8 µM; IC50 [7]: 5.9 µM |
| 0.033 | 2 | O=S(=O)(c1ccccn1)C1(c2cc(N3CCOCC3)nc(-c3cccc4[nH]ccc34)n2)CC1 | – |
